# Measurements: patent US20250257034A1, “INDOLE DERIVATIVES AS SEROTONERGIC AGENTS USEFUL FOR THE TREATMENT OF DISORDERS RELATED THERETO” (priority 2023, published 2025)
# Like-named read-outs stand apart in the source and are kept apart here.
# What was measured:
# [1] = Pharmacokinetic studies in rat (i.v.); type: in vivo; conditions: male, Sprague-Dawley, rat, plasma, dose 1.37 mg/kg (I-71, I-128), 1.33 mg/kg ((S) I-67); for concentration at 0.25 h / concentration at 1 h / concentration at 4 h: intravenous, rat i.v.; for AUC(0-t) / half-life: iv, rat plasma, i.v.; for half-life: estimated from 2 points only
# Description: Animals: Male Sprague-Dawley rats (˜225-350 g) from Charles River Labs were acclimatized for a minimum of 5 days prior to start of study procedures. Body weights were recorded on the day of dosing.
# Any abnormalities were documented including presence/absence of wet dog shakes/back muscle contractions (WDS/BMC).
# Dosing: Formulations were administered intravenously (i.v.) via the tail vein using a 25 G needle connected to a 1 cc syringe.
# The Compounds of Formula (I) were freshly prepared at the appropriate concentrations in 5% Tween-80 in saline.
# Blood collection time (h): 0.25, 1 and 4.
# Volume/time-point: ˜0.25 mL […] (saphenous vein).
# Instrumentation: AB Sciex QTRAP 4000 or 6500 MS/MS system equipped with an LC system with a binary pump, a solvent degasser, a thermostatted column compartment and a multiplate autosampler.
# Analysis software: Phoenix® WinNonlin® 8.3 (Pharsight, Certara, Mountainview, CA).
# Analysis methods: non-compartmental analysis, linear up/log down trapezoidal rule.
# PK parameters: t1/2 and AUC0-tlast were be estimated.
# Volume/time-point: ˜0.25 mL (saphenous vein).
# PK parameters: t1/2 and AUC0-tlast were estimated.
# [2] = Human liver microsomes stability; type: in vitro ADME; conditions: human liver microsomes
# Description: (§1) The objective of this study was to estimate in vitro metabolic stability of exemplary compounds of Formula (I) or a pharmaceutically acceptable salt, solvate, and/or prodrug thereof in pooled human, male rat, and male mouse liver microsomes. The concentrations of compounds in reaction systems were evaluated by LC-MS/MS for estimating the stability in pooled human, male rat, and male mouse liver microsomes. The in vitro intrinsic clearances of test compounds were determined as well.
# (§2) A master solution in the “Incubation Plate” containing phosphate buffer, ultra-pure H2O, MgCl2 solution and liver microsomes was made according to Table 33. The mixture was pre-warmed at 37° C. water bath for 5 minutes.
# (§3) 40 μL of 10 mM nicotinamide adenine dinucleotide phosphate (NADPH) solution was added to each well. The final concentration of NADPH was 1 mM. The negative control samples were prepared by replacing NADPH with 40 μL of ultra-pure H2O. Samples were prepared in duplicate. Negative controls were prepared in singlet.
# (§4) The reaction was started with the addition of 4 μL of 200 μM exemplary test compounds of the disclosure or control compounds to each master solution to get the final concentration of 2 μM. This study was performed in duplicate.
# (§5) Aliquots of 50 μL were taken from the reaction solution at 0, 15, 30, 45, and 60 minutes. The reaction solutions were stopped by the addition of 4 volumes of cold methanol with IS (100 nM alprazolam, 200 nM imipramine, 200 nM labet alol and 2 μM ketoprofen). Samples were centrifuged at 3,220 g for 40 minutes. Aliquot of 90 μL of the supernatant was mixed with 90 μL of ultra-pure H2O and then was used for LC-MS/MS analysis.
# (§6) LC/MS analysis was performed for all samples from this study using a Shimadzu liquid chromatograph separation system equipped with degasser DGU-20A5R; solvent delivery unit LC-30AD; system controller SIL-30AC; column oven CTO-30A; CTC Analytics HTC PAL System. Mass spectrometric analysis was performed using a Triple Quad™ 5500 instrument.
# (§7) All calculations were carried out using Microsoft Excel. Peak area ratios of test compound to internal standard (listed in the below table) were determined from extracted ion chromatograms.
# (§8) All calculations were carried out using Microsoft Excel. Peak areas were determined from extracted ion chromatograms. The slope value, k, was determined by linear regression of the natural logarithm of the remaining percentage of the parent drug vs. incubation time curve.
# (§9) The in vitro half-life (in vitro t1/2) was determined from the slope value:
# (§10) Conversion of the in vitro t1/2(min) into the in vitro intrinsic clearance (in vitro CLint, in μL/min/mg proteins) was done using the following equation (mean of duplicate determinations): […]
# (§11) A master solution in the “Incubation Plate” containing phosphate buffer, ultra-pure H2O, MgCl2 solution and liver microsomes was made according to Table 63. The mixture was pre-warmed at 37° C. water bath for 5 minutes.
# (§12) 40 μL of 10 mM NADPH solution was added to each well. The final concentration of NADPH was 1 mM. The negative control samples were prepared by replacing NADPH with 40 μL of ultra-pure H2O. Samples were prepared in duplicate. Negative controls were prepared in singlet.
# (§13) Conversion of the in vitro t1/2(min) into the in vitro intrinsic clearance (in vitro C Lt, in μL/min/mg proteins) was done using the following equation (mean of duplicate determinations): […]
# [3] = Mouse liver microsomes stability; type: in vitro ADME; conditions: mouse liver microsomes
# Description: as §1, §2, §3, §4, §5, §6, §7, §8, §9, §10, §11, §12, §13
# [4] = first individual rat (R01/R04), read-out: Plasma concentration
# [5] = mean of 3 rats, read-out: Plasma concentration, Mean ± SD
# [6] = second individual rat (R02/R05), read-out: Plasma concentration
# [7] = third individual rat (R03/R06), read-out: Plasma concentration
compound,measurement,setting,value
"COc1ccc2[nH]cc(CCN3CC[C@H](OC(F)F)C3)c2c1 [(S) I-67, (S)-3-(2-(3-(Difluoromethoxy)pyrrolidin-1-yl)ethyl)-5-methoxy-1H-indole]",concentration at 0.25 h,[1]; [4],413 ng/mL
same,concentration at 0.25 h,[1]; [5],436 ± 32.4 ng/mL
same,concentration at 0.25 h,[1]; [6],473 ng/mL
same,concentration at 0.25 h,[1]; [7],422 ng/mL
same,concentration at 1 h,[1]; [4],172 ng/mL
same,concentration at 1 h,[1]; [5],162 ± 9.07 ng/mL
same,concentration at 1 h,[1]; [6],155 ng/mL
same,concentration at 1 h,[1]; [7],158 ng/mL
same,concentration at 4 h,[1]; [4],5.35 ng/mL
same,concentration at 4 h,[1]; [5],6.96 ± 1.54 ng/mL
same,concentration at 4 h,[1]; [6],8.41 ng/mL
same,concentration at 4 h,[1]; [7],7.12 ng/mL
same,AUC(0-t),"[1]; first individual rat (R01/R04), read-out: AUC0-tlast",470 ng·h/mL
same,half-life,"[1]; first individual rat (R01/R04), read-out: Apparent t1/2 (converted)",35.9 min
same,AUC(0-t),"[1]; mean of 3 rats, read-out: AUC0-tlast, Mean ± SD",484 ± 21.1 ng·h/mL
same,half-life,"[1]; mean of 3 rats, read-out: Apparent t1/2, Mean ± SD (converted)",38.2 ± 2.02 min
same,AUC(0-t),"[1]; second individual rat (R02/R05), read-out: AUC0-tlast",508 ng·h/mL
same,half-life,"[1]; second individual rat (R02/R05), read-out: Apparent t1/2 (converted)",39.8 min
same,AUC(0-t),"[1]; third individual rat (R03/R06), read-out: AUC0-tlast",472 ng·h/mL
same,half-life,"[1]; third individual rat (R03/R06), read-out: Apparent t1/2 (converted)",38.8 min
same,Predicted hepatic CL,[2],13.30 mL/min/kg
same,half-life at 2 μM,"[2]; 2 μM compound, 0.5 mg/mL",46.8 min
same,microsomal CLint at 2 μM,"[2]; 2 μM compound, 0.5 mg/mL, read-out: CLint (μL/min/mg protein)",29.6 µL/min/mg
same,Remaining Percentage (%),"[2]; With Cofactors, 0 min",100.00%
same,Remaining Percentage (%),"[2]; With Cofactors, 30 min",66.20%
same,Remaining Percentage (%),"[2]; With Cofactors, 60 min",41.10%
same,Remaining Percentage (%),"[2]; Without Cofactors, 0 min",100.00%
same,Remaining Percentage (%),"[2]; Without Cofactors, 30 min",98.68%
same,Remaining Percentage (%),"[2]; Without Cofactors, 60 min",100.00%
same,CLint scaled at 2 μM,[2]; read-out: Scaled-up CLint,37.2 mL/min/kg
same,microsomal CLint at 2 μM,"[3]; male, mouse, pooled liver microsomes, 2 μM compound, 0.5 mg/mL, read-out: CLint (μL/min/mg protein)",69.3 µL/min/mg
same,half-life at 2 μM,"[3]; male, pooled liver microsomes, 2 μM compound, 0.5 mg/mL",20 min
same,CLint scaled at 2 μM,"[3]; male, pooled liver microsomes, read-out: Scaled-up CLint",303 mL/min/kg
same,Predicted hepatic CL,[3],69.41 mL/min/kg
same,Remaining Percentage (%),"[3]; With Cofactors, 0 min",100.00%
same,Remaining Percentage (%),"[3]; With Cofactors, 30 min",34.21%
same,Remaining Percentage (%),"[3]; With Cofactors, 60 min",12.49%
same,Remaining Percentage (%),"[3]; Without Cofactors, 0 min",100.00%
same,Remaining Percentage (%),"[3]; Without Cofactors, 30 min",103.46%
same,Remaining Percentage (%),"[3]; Without Cofactors, 60 min",100.35%
